Our source for the GI50 and TGI values is PubChem BioAssay (NCI).

Each structure is given as a SMILES string. Several values for one entry are separate records, joined by “and”; a condition that tells them apart may be missing. Equal values may be shown once.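 Test compounds were applied to cells in 96-well plates for 48 hours at 5 doses. GI50 = concentration required for 50% inhibition of growth. At the TGI there is no net growth.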

What all share (assay): NCI-60 cell line screen, 48 h
Assay [1] concerns HCT-15 colon.
The subject of assay [2] is HOP-92 NSCLC.
Assay [3] has as its system HS 578T breast.
For assay [4], the system named is M14 melanoma.
Assay [5] deals with MDA-MB-435.
Assay [6] concerns MOLT-4 leukemia.
For assay [7], the system named is SK-OV-3 ovarian.
Assay [8] deals with SNB-19 CNS.
For assay [9], the system named is TK-10 renal.
Assay [10] has as its system UACC-62 melanoma.

As to `O=C(CSc1nc2ccc([N+](=O)[O-])cc2[nH]1)Nc1ccc([N+](=O)[O-])cc1`, the GI50 was 2.93 µM in assay [1]; 0.293 µM in assay [2]; 2.31 µM in assay [3]; 2.73 µM in assay [4]; 2.66 µM in assay [5]; 2.81 µM in [6]. Besides, the GI50 was 1.89 µM in assay [7], 3.02 µM in assay [8], 3.47 µM in [9] and 1.36 µM in assay [10]. Besides, the TGI in [1] is 17.6 µM; in assay [2] it was 2.22 µM; in [3], 10.2 µM; in [4], 19.9 µM; in assay [5], 12.7 µM; in [6], more than 32.3 µM. The TGI was found to be 5.59 µM in assay [7], 18 µM in [8], 11 µM in [9] and 7.52 µM in assay [10].
As for `O=C(NCCCNc1cc(-c2cn(-c3ccccc3)nc2-c2cccc(O)c2)ccn1)c1ccc(F)cc1`, the GI50 was 1.77 µM in assay [1]; 2.13 µM in assay [2]; 2.58 µM in assay [3]; 1.85 µM in assay [4]; 1.74 µM in assay [5]; 2.36 µM in assay [6]. Besides, the GI50 was 3.39 µM in assay [7], 4.63 µM in [8], 4.47 µM in assay [9] and 2.05 µM in assay [10]. Besides, the TGI in [1] worked out at 4.7 µM; in assay [2], 7.65 µM; in [3] it was 10.8 µM; in assay [4] it was 4.28 µM; in [5], 4.44 µM; in assay [6], 14 µM. The TGI in assay [7] stood at 24.2 µM; in [8] it was 29.5 µM; in assay [9] it was 26.3 µM; in assay [10], 5.08 µM.
Consider `O=C(NC(=S)Nc1ccc(-c2nc3ccccc3[nH]2)cc1)c1ccc2ccccc2c1`, for which the GI50 is 3.15 µM in assay [1]; 2.17 µM in assay [2]; 3.09 µM in assay [3]; 4.79 µM in [4]; 4.27 µM in [5]; 8.04 µM in assay [6]. In addition, the GI50 in assay [7] was 12.8 µM; in assay [8], 68.1 µM; in assay [9] it was 3.33 µM; in assay [10], 4.06 µM. For the same molecule, the TGI in assay [1] was 50.1 µM; in [2], 7.02 µM; in assay [3], 9.94 µM; in [4], more than 100 µM; in [5], more than 100 µM; in [6], more than 100 µM. The TGI in [7] was 37 µM; in assay [8], more than 100 µM; in assay [9] it was 8.44 µM; in assay [10], more than 100 µM.
As for `CC(C)[C@]12O[C@H]1[C@@H]1O[C@]13[C@]1(O[C@H]1C[C@H]1C4=C(CC[C@@]13C)C(=O)OC4)[C@@H]2OC(=O)OC(C)(C)C`, the GI50 was 0.0253 µM in [1]; 0.0448 µM in assay [2]; 0.019 µM in assay [3]; 0.0157 µM in assay [4]; 0.0122 µM in [5]; 0.0156 µM in [6]. Further, the GI50 in assay [7] was 0.0402 µM; in assay [8], 0.128 µM; in assay [9], 0.0329 µM; in assay [10] it was 0.0178 µM. Besides, the TGI in assay [1] is more than 100 µM; in assay [3], 0.0713 µM; in assay [4], 0.0336 µM; in [5], 0.0478 µM; in assay [7], more than 100 µM; in [8] it was more than 100 µM. Besides, the TGI in assay [9] was more than 100 µM; in assay [10] it was 0.0571 µM.
With `COc1ccc(C(=O)O[C@@H]2CCN3CC[C@H](C)[C@H]23)cc1`, the TGI in assay [1], in assay [2], in [3], in assay [4], in [5] and in assay [6] was more than 100 µM each time. The TGI in [7], in assay [8], in assay [9] and in assay [10] was more than 100 µM each time.
With `CC12OC(C(=O)C13CC3)C1C(=O)c3cccc(O)c3C(=O)C12` (configuration not stated), the GI50 was 9.82 µM in assay [1]; 31.1 µM in assay [2]; 25.8 µM in assay [3]; 24.6 µM in assay [4]; 16.9 µM in assay [5]; 1.83 µM in [6]. Further, the GI50 in assay [7] was 22.9 µM; in [8], 10.4 µM; in assay [9], 8.82 µM; in assay [10], 5.23 µM. Moreover, the TGI was more than 54.8 µM in [1]; more than 100 µM in [2]; 82.1 µM in assay [3]; 63.5 µM in assay [4]; more than 57.7 µM in assay [5]; more than 100 µM in [6]. Besides, the TGI in [7] is more than 75.3 µM; in assay [8], 40.1 µM; in assay [9], 30.6 µM; in assay [10], 37.2 µM.
As to `COc1cc2cc(Oc3ccc(NC(=O)Nc4ccc(F)c(C(F)(F)F)c4)cc3)c(C)nc2cc1OCCN1CCOCC1`, the GI50 is 1.73 µM in assay [1]; 1.31 µM in assay [2]; 2.12 µM in assay [3]; 1.53 µM in assay [4]; 1.91 µM in assay [5]; 1.86 µM in [6]. Also, the GI50 was 3.76 µM in [7], 3.96 µM in assay [8], 4.94 µM in assay [9] and 1.36 µM in assay [10]. Moreover, the TGI came to 4.19 µM in assay [1]; 4.96 µM in assay [2]; 8.9 µM in [3]; 3.31 µM in [4]; 3.9 µM in assay [5]; 11.4 µM in assay [6]. Further, the TGI was determined as 26.7 µM in assay [7], 19.3 µM in [8], 25.1 µM in [9] and 4.24 µM in [10].
With `CC[n+]1c(/C=C/c2ccc(N3CCCC3)cc2)cccc1/C=C/c1ccc(N2CCCC2)cc1`, the GI50 is 0.332 µM in [1]; 0.342 µM in assay [2]; 0.273 µM in [3]; 0.345 µM in [4]; 0.343 µM in [5]; 0.128 µM and 0.354 µM in assay [6]. The GI50 was 0.228 µM in [7]; 0.31 µM in assay [8]; 0.359 µM in [9]; 0.356 µM and 0.387 µM in assay [10]. For the same molecule, the TGI came to 1.23 µM in assay [1]; 1.41 µM in assay [2]; 1.46 µM in [3]; 1.85 µM in assay [4]; 2.34 µM in assay [5]; 0.897 µM in [7]. The TGI in assay [8] was 1.55 µM; in assay [9], 2.38 µM; in assay [10], 1.7 µM and 1.67 µM.
